Measured values published in PubChem BioAssay (NCI).
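1) Cells in 96-well plates. 2) Compound, 48 h, 5 concentrations. 3) Linear interpolation between surrounding doses. 4) Unreached endpoint = highest concentration. Abbreviation: GI50, concentration required for 50% inhibition of growth. At the TGI there is no net growth.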

Assays:
Experiment in all cases: NCI-60 cell line screen, 48 h; in the data active = GI50 below about 0.43 µM; inactive = the rest
[1] = tested on: UACC-62 melanoma
[2] = tested on: SF-539 CNS
[3] = tested on: K-562 leukemia
[4] = tested on: CAKI-1 renal
[5] = tested on: DU-145 prostate
[6] = tested on: TK-10 renal
[7] = tested on: MDA-MB-231 breast
[8] = tested on: NCI-H23 lung
[9] = tested on: BT-549 breast
[10] = tested on: MOLT-4 leukemia
[11] = tested on: SK-MEL-28 melanoma
[12] = tested on: 786-0 renal
[13] = tested on: A498 renal
[14] = tested on: MALME-3M melanoma
[15] = tested on: HS 578T breast
[16] = tested on: SN12C renal
[17] = tested on: OVCAR-3 ovarian
[18] = tested on: SF-295 CNS
[19] = tested on: UO-31 renal
[20] = tested on: LOX IMVI melanoma
[21] = tested on: NCI-H460 lung
[22] = tested on: SK-MEL-5 melanoma
[23] = tested on: HCT-15 colon
[24] = tested on: SNB-19 CNS
[25] = tested on: ACHN renal
[26] = tested on: KM12 colon
[27] = tested on: OVCAR-4 ovarian
[28] = tested on: OVCAR-5 ovarian
[29] = tested on: COLO 205 colon
[30] = tested on: M14 melanoma
[31] = tested on: SK-OV-3 ovarian
[32] = tested on: NCI-H226 lung
[33] = tested on: HL-60(TB) leukemia
[34] = tested on: HCT-116 colon
[35] = tested on: NCI/ADR-RES ovarian
[36] = tested on: SK-MEL-2 melanoma
[37] = tested on: MDA-MB-435
[38] = tested on: T-47D breast
[39] = tested on: RXF 393 renal
[40] = tested on: RPMI-8226 leukemia
[41] = tested on: SW-620 colon
[42] = tested on: PC-3 prostate
[43] = tested on: OVCAR-8 ovarian
[44] = tested on: SF-268 CNS
[45] = tested on: HOP-92 NSCLC
[46] = tested on: SR leukemia
[47] = tested on: HOP-62 NSCLC
[48] = tested on: HCC-2998 colon
[49] = tested on: SNB-75 CNS
[50] = tested on: HT29 colon
[51] = tested on: U251 CNS
[52] = tested on: IGROV1 ovarian
[53] = tested on: MCF7 breast

CCCCc1ccc(NS(=O)(=O)c2cc3c4c(c2)CCN4C(=O)CC3)cc1
78 µM: TGI [49]
36.4 µM: TGI [45]
55 µM: TGI [6]
58.3 µM: TGI [33]
78.5 µM: TGI [4]
45.4 µM: TGI [22]
37.5 µM: TGI [13]
72.1 µM: TGI [38]
63.6 µM: TGI [36]
93.8 µM: TGI [18]
77.6 µM: TGI [10]
62.5 µM: TGI [39]
94.1 µM: TGI [47]
57 µM: TGI [40]
61.2 µM: TGI [15]
inactive: GI50 [1] 6.1 µM | GI50 [2] 24.4 µM | GI50 [3] 9.3 µM | GI50 [4] 8.49 µM | GI50 [5] 35.5 µM | GI50 [6] 15.1 µM | GI50 [7] 16.1 µM | GI50 [8] 10.6 µM | GI50 [9] 18 µM | GI50 [10] 11.2 µM | GI50 [11] 39.3 µM | GI50 [12] 17.9 µM | GI50 [13] 5.82 µM | GI50 [14] 35.4 µM | GI50 [15] 15.2 µM | GI50 [16] 34.6 µM | GI50 [17] 22.6 µM | GI50 [18] 13.4 µM | GI50 [19] 12.8 µM | GI50 [20] 35.1 µM | GI50 [21] 28.2 µM | GI50 [22] 8.25 µM | GI50 [23] 17 µM | GI50 [24] 29.8 µM | GI50 [25] 15.7 µM | GI50 [26] 26.9 µM | GI50 [27] 25.1 µM | GI50 [28] 35.8 µM | GI50 [29] 25.1 µM | GI50 [30] 19.8 µM | GI50 [31] 34.9 µM | GI50 [32] 15.9 µM | GI50 [33] 12.2 µM | GI50 [34] 17.5 µM | GI50 [35] 7.97 µM | GI50 [36] 17.5 µM | GI50 [37] 16.9 µM | GI50 [38] 5.48 µM | GI50 [39] 16.1 µM | GI50 [40] 7.79 µM | GI50 [41] 33.5 µM | GI50 [42] 11.7 µM | GI50 [43] 19.7 µM | GI50 [44] 30.3 µM | GI50 [45] 9.27 µM | GI50 [46] 7.35 µM | GI50 [47] 28.5 µM | GI50 [48] 89.5 µM | GI50 [49] 18.4 µM | GI50 [50] 32.5 µM | GI50 [51] 23.5 µM | GI50 [52] 44.4 µM | GI50 [53] 9.94 µM
65.2 µM: TGI [1]
87.2 µM: TGI [29]
74.6 µM: TGI [12]
> 100 µM: TGI [2] | TGI [3] | TGI [5] | TGI [7] | TGI [8] | TGI [9] | TGI [11] | TGI [14] | TGI [16] | TGI [17] | TGI [19] | TGI [20] | TGI [21] | TGI [23] | TGI [24] | TGI [25] | TGI [26] | TGI [27] | TGI [28] | TGI [30] | TGI [31] | TGI [32] | TGI [34] | TGI [35] | TGI [37] | TGI [41] | TGI [42] | TGI [43] | TGI [44] | TGI [46] | TGI [48] | TGI [50] | TGI [51] | TGI [52] | TGI [53]
